Assay results from PubChem BioAssay AID330 (DTP/NCI, 2004).
Values joined by “and” are separate entries in the source; they are usually repeats but may differ in a detail not shown here. Identical values can stand only once. Inconclusive results and toxic doses are left out. The calls were made as follows: active = survival T/C of 150% or more; inactive = T/C below 125% in these data.

Tested on: P388 leukemia ip, CD2F1 mice, survival T/C
Assay: NCI In Vivo Anticancer Drug Screen. Data for tumor model P388 Leukemia (intraperitoneal) in CD2F1 (CDF1) mice
Conditions: endpoint: median survival time, higher = longer survival
How it was run: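 Mice carrying the transplanted tumor received test compound or vehicle. Survival was recorded in each group, and the value is the treated-group measurement divided by that of the vehicle-treated control group.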

[1] = dose: 50.0 mg/kg/injection, schedule: Q01DX009 (ip), vehicle: Klucel (hydroxypropylcellulose) (HPC)
[2] = dose: 100.0 mg/kg/injection, schedule: Q01DX009 (ip), vehicle: Klucel (hydroxypropylcellulose) (HPC)
[3] = dose: 200.0 mg/kg/injection, schedule: Q01DX009 (ip), vehicle: Klucel (hydroxypropylcellulose) (HPC)
[4] = dose: 25.0 mg/kg/injection, schedule: Q01DX009 (ip), vehicle: saline with Tween-80
[5] = dose: 50.0 mg/kg/injection, schedule: Q01DX009 (ip), vehicle: saline
[6] = dose: 100.0 mg/kg/injection, schedule: Q01DX009 (ip), vehicle: saline
[7] = dose: 200.0 mg/kg/injection, schedule: Q01DX009 (ip), vehicle: saline
[8] = dose: 50.0 mg/kg/injection, schedule: Q01DX005 (ip), vehicle: saline with Tween-80
[9] = dose: 100.0 mg/kg/injection, schedule: Q01DX005 (ip), vehicle: saline with Tween-80
[10] = dose: 200.0 mg/kg/injection, schedule: Q01DX005 (ip), vehicle: saline with Tween-80
[11] = dose: 50.0 mg/kg/injection, schedule: Q01DX009 (ip), vehicle: saline with Tween-80
[12] = dose: 100.0 mg/kg/injection, schedule: Q01DX009 (ip), vehicle: saline with Tween-80
[13] = dose: 200.0 mg/kg/injection, schedule: Q01DX009 (ip), vehicle: saline with Tween-80
[14] = dose: 60.0 mg/kg/injection, schedule: Q01DX005 (ip), vehicle: saline with Tween-80
[15] = dose: 120.0 mg/kg/injection, schedule: Q01DX005 (ip), vehicle: saline with Tween-80
[16] = dose: 100.0 mg/kg/injection, schedule: Q01DX001 (ip), vehicle: saline with Tween-80
[17] = dose: 200.0 mg/kg/injection, schedule: Q01DX001 (ip), vehicle: saline with Tween-80
[18] = dose: 240.0 mg/kg/injection, schedule: Q01DX005 (ip), vehicle: saline with Tween-80

Measured: T/C

CN=C(N)N/N=C(\c1ccccc1)c1ccc(Br)cc1
inactive: dose: 3.12 mg/kg/injection, schedule: Q04DX002 (ip), vehicle: saline with Tween-80 101 % of control | dose: 6.25 mg/kg/injection, schedule: Q04DX002 (ip), vehicle: saline with Tween-80 108 % of control and 96 % of control

NC(=O)C1CCCN(C2OC(COP(=O)(O)OP(=O)(O)OCC3OC(n4nnc5c(=O)[nH]c(N)nc54)C(O)C3O)C(O)C2O)C1 (configuration not stated)
inactive: dose: 50.0 mg/kg/injection, schedule: Q01DX005 (ip), vehicle: saline 115 % of control | dose: 100.0 mg/kg/injection, schedule: Q01DX005 (ip), vehicle: saline 98 % of control | dose: 200.0 mg/kg/injection, schedule: Q01DX005 (ip), vehicle: saline 87 % of control

CCCSCCC(C)(N)C(=O)O (configuration not stated)
inactive: dose: 25.0 mg/kg/injection, schedule: Q01DX009 (ip), vehicle: Klucel (hydroxypropylcellulose) (HPC) 98 % of control | [1] 91 % of control | [2] 107 % of control | [3] 96 % of control

O=C1NNCc2c1oc1ccccc21
inactive: dose: 6.25 mg/kg/injection, schedule: Q01DX009 (ip), vehicle: saline with Tween-80 95 % of control | dose: 12.5 mg/kg/injection, schedule: Q01DX009 (ip), vehicle: saline with Tween-80 92 % of control | [4] 99 % of control

CC1(C)CC(=NNC(N)=S)CC(C)(C)N1
inactive: [5] 94 % of control | [6] 97 % of control | [7] 99 % of control

CSc1nc2nc[nH]c2c(=O)[nH]1
inactive: dose: 12.5 mg/kg/injection, schedule: Q01DX005 (ip), vehicle: saline with Tween-80 100 % of control | dose: 25.0 mg/kg/injection, schedule: Q01DX005 (ip), vehicle: saline with Tween-80 100 % of control | [8] 101 % of control and 105 % of control | [9] 101 % of control | [10] 104 % of control

CC(C)(C)c1ccc(N2CSC(=S)N(c3ccc(C(C)(C)C)cc3)C2)cc1
inactive: [11] 96 % of control | [12] 89 % of control | [13] 90 % of control

COC1=CC(=O)C(c2cc(OC(C)=O)c(OC)cc2OC(C)=O)=CC1=O
inactive: dose: 6.0 mg/kg/injection, schedule: Q01DX005 (ip), vehicle: saline + Tween-80 + alcohol 108 % of control | dose: 12.0 mg/kg/injection, schedule: Q01DX005 (ip), vehicle: saline + Tween-80 + alcohol 100 % of control | dose: 25.0 mg/kg/injection, schedule: Q01DX005 (ip), vehicle: saline + Tween-80 + alcohol 105 % of control

CCN(CC)CCNc1c(C)cccc1Cl
inactive: [14] 100 % of control | [15] 100 % of control

O=C1OC(=O)C2=C1C1c3ccccc3C2c2ccccc21
inactive: dose: 12.5 mg/kg/injection, schedule: Q01DX005 (ip), vehicle: Klucel (hydroxypropylcellulose) (HPC) 100 % of control | dose: 25.0 mg/kg/injection, schedule: Q01DX005 (ip), vehicle: Klucel (hydroxypropylcellulose) (HPC) 109 % of control | dose: 50.0 mg/kg/injection, schedule: Q01DX005 (ip), vehicle: Klucel (hydroxypropylcellulose) (HPC) 108 % of control and 110 % of control | dose: 100.0 mg/kg/injection, schedule: Q01DX005 (ip), vehicle: Klucel (hydroxypropylcellulose) (HPC) 106 % of control

O=[N+]([O-])[O-].OCCNCCNCC[OH2+].OCCNCCNCC[OH2+].[Ni+2]
inactive: dose: 3.13 mg/kg/injection, schedule: Q01DX009 (ip), vehicle: saline 88 % of control | dose: 6.25 mg/kg/injection, schedule: Q01DX009 (ip), vehicle: saline 90 % of control | dose: 12.5 mg/kg/injection, schedule: Q01DX009 (ip), vehicle: saline 102 % of control and 86 % of control

Brc1ccc2c3c(ccc2c1)OCCOCCOCCOCCOCCOc1ccc2cc(Br)ccc2c1-3
inactive: [16] 104 % of control | [17] 107 % of control | dose: 400.0 mg/kg/injection, schedule: Q01DX001 (ip), vehicle: saline with Tween-80 104 % of control

c1cc[n+](-c2nc3ccccc3[n-]2)cc1
inactive: dose: 100.0 mg/kg/injection, schedule: Q04DX003 (ip), vehicle: saline 100 % of control | dose: 200.0 mg/kg/injection, schedule: Q04DX003 (ip), vehicle: saline 98 % of control | dose: 400.0 mg/kg/injection, schedule: Q04DX003 (ip), vehicle: saline 100 % of control

CCCOC(=O)Nc1ccc2c(c1)c1c3[nH]c(=O)c4cccn4c3ccc1n2CC
inactive: [16] 94 % of control | [17] 94 % of control

C=C(C)[C@H]1Cc2c(ccc3c2O[C@@H]2COc4cc(OC)c(OC)cc4[C@@H]2C3=O)O1
inactive: dose: 1.5 mg/kg/injection, schedule: Q01DX009 (ip), vehicle: saline with Tween-80 110 % of control | dose: 1.5 mg/kg/injection, schedule: Q04DX003 (ip), vehicle: saline with Tween-80 100 % of control | dose: 3.0 mg/kg/injection, schedule: Q01DX009 (ip), vehicle: saline with Tween-80 115 % of control | dose: 3.0 mg/kg/injection, schedule: Q04DX003 (ip), vehicle: saline with Tween-80 100 % of control | dose: 6.0 mg/kg/injection, schedule: Q01DX009 (ip), vehicle: saline with Tween-80 120 % of control | dose: 6.0 mg/kg/injection, schedule: Q04DX003 (ip), vehicle: saline with Tween-80 104 % of control | dose: 12.5 mg/kg/injection, schedule: Q01DX001 (ip), vehicle: saline with Tween-80 110 % of control | dose: 25.0 mg/kg/injection, schedule: Q01DX001 (ip), vehicle: saline with Tween-80 114 % of control | dose: 50.0 mg/kg/injection, schedule: Q01DX001 (ip), vehicle: saline with Tween-80 112 % of control

O=C1C(N=Nc2cc(Cl)ccc2Cl)C(O)N(c2ccc(Cl)cc2)C(=S)N1c1cccc(Cl)c1Cl (configuration not stated)
inactive: dose: 100.0 mg/kg/injection, schedule: Q04DX002 (ip), vehicle: Klucel (hydroxypropylcellulose) (HPC) 100 % of control | dose: 200.0 mg/kg/injection, schedule: Q04DX002 (ip), vehicle: Klucel (hydroxypropylcellulose) (HPC) 101 % of control | dose: 400.0 mg/kg/injection, schedule: Q04DX002 (ip), vehicle: Klucel (hydroxypropylcellulose) (HPC) 99 % of control

O=[N+]([O-])c1ccc2nc(CC(O)(C(F)(F)F)C(F)(F)F)ccc2c1
inactive: [12] 115 % of control | [13] 90 % of control | dose: 400.0 mg/kg/injection, schedule: Q01DX009 (ip), vehicle: saline with Tween-80 95 % of control

O=C1CCCCCCCCCC/C1=N/O
inactive: [11] 99 % of control | [12] 89 % of control | [13] 96 % of control

CCOC(=O)c1ccc(NC(=O)Nc2cccc(O)c2)cc1
inactive: dose: 60.0 mg/kg/injection, schedule: Q01DX005 (ip), vehicle: Klucel (hydroxypropylcellulose) (HPC) 107 % of control | dose: 120.0 mg/kg/injection, schedule: Q01DX005 (ip), vehicle: Klucel (hydroxypropylcellulose) (HPC) 104 % of control | dose: 240.0 mg/kg/injection, schedule: Q01DX005 (ip), vehicle: Klucel (hydroxypropylcellulose) (HPC) 91 % of control

OCCN1OCCCC1c1ccccc1 (configuration not stated)
inactive: [11] 94 % of control | [12] 92 % of control

CCOC(=O)[C](=[N+]=[N-])[Hg][C](=[N+]=[N-])C(=O)OCC
inactive: dose: 1.56 mg/kg/injection, schedule: Q04DX003 (ip), vehicle: saline 100 % of control | dose: 3.12 mg/kg/injection, schedule: Q04DX003 (ip), vehicle: saline 101 % of control | dose: 6.25 mg/kg/injection, schedule: Q04DX003 (ip), vehicle: saline 100 % of control

O=C(O)/C=C\C(=O)OCc1ccc(Cl)cc1Cl
inactive: [4] 86 % of control | [11] 90 % of control

NCCC(=O)NC(Cc1cnc[nH]1)C(=O)O (configuration not stated)
inactive: [5] 104 % of control | [6] 104 % of control | [7] 99 % of control | dose: 400.0 mg/kg/injection, schedule: Q01DX009 (ip), vehicle: saline 98 % of control

COc1ccc(C2c3c(ccc4ccccc34)Oc3ccc4ccccc4c32)cc1
inactive: [14] 87 % of control | [15] 86 % of control | [18] 90 % of control

CC(C)(Br)C(=O)/C=C/c1ccc(Cl)cc1
inactive: [14] 108 % of control | [15] 104 % of control | [18] 114 % of control

Cc1[nH]c2c(ccc3c2ccc2c(=O)c(C)c(C)[nH]c23)c(=O)c1C
inactive: [8] 95 % of control | [9] 96 % of control | [10] 95 % of control

CCOC(=O)NNC1=C(CC(=O)c2ccccc2)C(=O)CC(C)(C)C1
inactive: [1] 101 % of control | [2] 102 % of control | [3] 109 % of control
